Measured values reported in patent publication US12458605B2, “Lipid nanoparticle” (National University Corporation Hokkaido University, priority 2020, dated 2025).
“And” between values parts separate entries of the source, which are not always exact repeats. Equal entries are not always repeated.

Assays:
[1] = Storage stability of FlucmRNA-loaded LNP at −80, 5, 25 and 40° C.; type: physicochemical; conditions: for period for which quality remained good, −80° C.: maximum storage period 1 week; for period for which quality remained good, 5° C. / period for which quality remained good, 25° C. / period for which quality remained good, 40° C. (weeks): maximum storage period 5 weeks
Method in brief: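 Reported period is how long all three criteria hold: encapsulation rate at 80% or more, PDI of 0.2 or less, and mean particle size within +/−20 nm of day-of-preparation value. Particle size, PDI and nucleic acid encapsulation were tracked over time at storage temperatures of −80, 5, 25 and 40° C.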

[2] = Stability of pDNA-loaded LNP standing at 40° C.; type: physicochemical
Protocol: Prepared lipid nanoparticles were allowed to stand at 40° C., and after keeping for each period, they were evaluated whether quality was well remained according to the following criteria: • Good (O): particle size is within +/−20 nm of the particle size immediately after preparation, and PDI is 0.2 or less, and encapsulation rate is 80% or more; • No good (X): particle size is greater than +/−20 nm of the particle size immediately after preparation, or encapsulation rate is less than 80%.
The lipid nanoparticles which remain in good quality with standing at 40° C. for one week or more can be evaluated as having excellent stability.

[3] = siRNA/mRNA encapsulation rate by Ribogreen reagent (section IV); type: physicochemical; conditions: for % siRNA encapsulation: F7siRNA-loaded LNP, 50:10:38.5:1.5, N/P ratio 6; for % mRNA encapsulation: FlucmRNA-loaded LNP, 50:10:38.5:1.5
Method in brief: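 Encapsulation % was calculated as (total − surface nucleic acid)/total × 100, with both values measured by RiboGreen fluorescence at 485/528 nm. Total RNA was read on LNPs lysed with 1% Triton X-100 at 1.2 μg/mL, and surface RNA on intact LNPs at 8 μg/mL in TE buffer. Concentrations came from a 0-2.5 μg/mL Triton-containing calibration curve.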

F7 = assay: In vivo F7 knockdown, plasma F7 enzyme activity (BIOPHEN FVII), Balb/c mice; conditions: i.v. 0.025 mg siRNA/kg, plasma at 24 hours; for F7 enzyme activity (%): untreated mice as 100%
Method in brief: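 Plasma factor VII activity was read 24 h after a single intravenous 0.025 mg siRNA/kg dose of siRNA-loaded lipid nanoparticles in 5-week-old female Balb/c mice. Activity is relative to untreated animals (100%) and normalised to the MC3 nanoparticle benchmark (=1).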

[4] = pDNA encapsulation rate by Picogreen reagent; type: physicochemical; conditions: pDNA (eGFP)-loaded LNP
Protocol: The encapsulation rate of pDNA of the lipid nanoparticles was measured using Picogreen (registered trademark) reagent (Quant-iT™ dsDNA Assay Kit, broad range, manufactured by Thermofisher Scientific). In encapsulation rate measurement of pDNA, the nucleic acid concentration in solution for measuring nanoparticle surface nucleic acid concentration was set at 1.6 μg/mL, the nucleic acid concentration in solution for measuring total nucleic acid concentration […], and the nucleic acid concentration used for calibration curve 0-0.5 μg/mL, and the same method as the method for measuring encapsulation rate of siRNA and mRNA was carried out except that Picogreen (registered trademark) reagent (Quant-iT™ dsDNA Assay Kit, broad range, manufactured by Thermofisher Scientific) was used as measurement reagent. Encapsulation rate %=(nucleic acid concentration in solution for measuring total nucleic acid concentration (μg/mL)−nucleic acid concentration in solution for measuring nanoparticle surface nucleic acid concentration (μg/mL))/(nucleic acid concentration in solution for measuring total nucleic acid concentration (μg/mL))×100. <Results>

spleen = assay: In vivo Fluc activity of FlucmRNA-loaded LNP by in vivo imaging, spleen; conditions: Balb/c mice, FlucmRNA-loaded LNP i.v. 0.1 mg mRNA/kg, 6 hours
Method in brief: (§1)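 Read-out is average radiance (p/s/cm2/sr, about 560 nm) from whole-animal imaging of liver and spleen 6 h post-dose, after tail-vein luciferin at 1.5 mg/mouse. Dosing was intravenous, 0.1 mg mRNA/kg, in 7-week-old female Balb/c mice.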

liver = assay: In vivo Fluc activity of FlucmRNA-loaded LNP by in vivo imaging, liver; conditions: Balb/c mice, 6 hours
Method in brief: as §1

[5] = Average particle size (ζ-Average) and PDI by dynamic light scattering (Zetasizer Nano ZSP); type: physicochemical
Method in brief: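 Dynamic light scattering of the particles in PBS(−) gave both the polydispersity index and the ζ-Average mean size.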

factor VII (F7) = conditions: mouse liver; lipid as LNP carrier of siRNA; cited from earlier work
[6] = pDNA-loaded LNP after standing at 40° C. 1 M
[7] = pDNA-loaded LNP after standing at 40° C. 1 W
[8] = F7siRNA-loaded LNP, 50:10:38.5:1.5, N/P ratio 6
[9] = FlucmRNA-loaded LNP, 50:10:38.5:1.5
[10] = FlucmRNA-loaded LNP, lipid:DSPC:cholesterol:DMG-PEG2K 50:10:38.5:1.5

| period for which quality remained good, −80° C. [1] [week] | period for which quality remained good, 5° C. [1] [weeks] | period for which quality remained good, 25° C. [1] [weeks] | period for which quality remained good, 40° C. (weeks) [1] [weeks] | % siRNA encapsulation [3] | % mRNA encapsulation [3] | ζ-Average (nm) [5, 8] | PDI [5, 9] | ζ-Average (nm) [5, 10] | SMILES | F7 enzyme activity (%) (F7) | ED50 in F7 knockdown (factor VII (F7)) [mg siRNA/kg] | other results |
| --- | --- | --- | --- | --- | --- | --- | --- | --- | --- | --- | --- | --- |
| 1 | 5 | 5 | 5 | 99.9% | 99.2% | 97.03 nm | 0.004 | 81.30 nm | CCCCCCCC(CCCCCCC)C(=O)OCCCCCCC(O)(CCCCCCOC(=O)C(CCCCCCC)CCCCCCC)CCCCN(CCC)CCC [CL4F 9-7] | 4.3 | – | Quality 40° C. 1 M ([2]; pDNA-loaded LNP): ∘; Quality 40° C. 1 W ([2]; pDNA-loaded LNP): ∘; Particle size (nm), 40° C. 1 M [2, 6]: 101.4 nm; encapsulation rate (%), 40° C. 1 M [2, 6]: 98.1%; Particle size (nm), 40° C. 1 W [2, 7]: 97.1 nm; encapsulation rate (%), 40° C. 1 W [2, 7]: 98.0%; encapsulation rate (%), immediately after the preparation [4]: 98.1%; Fluc Activity in spleen (spleen): 2.43E+06 Avg Radiance [p/s/cm2/sr]; Fluc activity in the liver, compared with CL4F6 (liver; 0.1 mg mRNA/kg, versus LNP comprising CL4F6 (Tables 5 and 6)): higher Fluc activity; Fluc Activity in liver (liver; FlucmRNA-loaded LNP i.v. 0.1 mg mRNA/kg): 1.55E+08 Avg Radiance [p/s/cm2/sr]; PDI [5, 8]: 0.020; Particle size (nm), immediately after the preparation ([5]; pDNA (eGFP)-loaded LNP, 50:10:38.5:1.5): 98.2 nm |
| – | – | – | – | – | – | – | – | – | CCCCC/C=C\C/C=C\CCCCCCCCOC1(OCCCCCCCC/C=C\C/C=C\CCCCC)CCN(C)CC1 [YSK05] | – | 0.06 | – |
| 0 | 0 | 1 | 0 | 99.1% and 97.6% | 99.0% and 99.04% | 81.68 nm and 85.73 nm and 87.69 nm | 0.042 and 0.072 | 68.60 nm and 71.49 nm | CCCCC/C=C\C/C=C\CCCCCCCCC(CCCCCCCC/C=C\C/C=C\CCCCC)OC(=O)CCCN(C)C [MC3, D-Lin-MC3-DMA, reference compound] | 2.5 | 0.005 | F7 enzyme activity (Ratio using MC3 as 1) (F7; relative plasma F7 activity of MC3 LNP as 1): 1 |
